# Source: US20160331754A1, “THERAPIES FOR TREATING CANCERS” (GILEAD SCIENCES, INC., priority 2014, published 2016)
# Several values for one entry are separate records, joined by “and”; a condition that tells them apart may be missing. Equal values may be shown once.
# How the values were obtained:
# [1] = tested on: pS6RP Ser235/236; assay: Flow cytometry, basal S6RP phosphorylation in CD34+ progenitor cells from MF patients; format: cell-based, human; settings: data not shown
# Protocol: (§1) PBMCs were isolated from whole blood of myelofibrosis (MF) patients who had not received treatments (i.e. naïve patients) or received ruxolitinib (i.e. rux-treated patients). The cells were treated with 0.02, 0.2, or 2.0 μM of Compound B or vehicle (0.1% DMSO in 0.1% FBS/RPMI) for 2 hours at 37° C. The cells were then fixed, permeabilized, and stained for FACS analysis. Antibodies specific to p-AKT Ser473 and pS6RP Ser235/236 were used to detect AKT phosphorylation (p-AKT) and S6RP phosphorylation (p-S6RP) in CD34^+/CD3^−/CD14^−/CD19/CD66^− (BD Biosciences) gated cells using flow cytometry. The percentage of basal (i.e. untreated with TPO) AKT and S6RP phosphorylation were normalized to vehicle control. A two-tailed paired t-test (GraphPad Prism) was used to calculate p-values. Values of p<0.05 were considered significant.
# (§2) Similar studies were conducted with PI3K inhibitors Compounds C and D. PBMC from MF patients had received ruxolitinib (rux) and MF patient had received Compound A. The cells were treated with Compounds C or D at 0, 20.0, 200.0, 2000.0 nM for 2 hours at 37° C. Cells were treated with TPO for 10 minutes. The percentage of basal p-AKT and p-S6RP levels were normalized to vehicle control and those of TPO-treated were normalized to TPO-treated vehicle control. The PI3Kδ inhibitors Compound C is referred by the chemical names of (S)-2-(1-((9H-purin-6-yl)amino)ethyl)-6-fluoro-3-phenylquinazolin-4(3H)-one.
# [2] = tested on: p-AKT Ser473; assay: Flow cytometry, TPO-activated AKT phosphorylation in CD34+ progenitor cells from MF patients; format: cell-based, human; settings: for p-AKT (table title: percentage of Annexin-V positive cells): cells from Compound A-treated MF patients; for normalized percentage of TPO-activated AKT phosphorylation (p-AKT): TPO-treated vehicle=100
# Protocol: as §1
# (§3) Also, PBMC cells from naïve or ruxolitinib treated patients were isolated and treated with Compound B and with TPO as described above. The percentage of TPO-activated AKT and S6RP phosphorylation were normalized to those of TPO-treated vehicle (“no TPO” values in Table 4). […] Also, the inhibition to PI3K signaling was dose-dependent to Compound B.
# as §2
# [3] = tested on: pS6RP Ser235/236; assay: Flow cytometry, TPO-activated S6RP phosphorylation in CD34+ progenitor cells from MF patients; format: cell-based, human; settings: for p-S6RP (table title: percentage of Annexin-V positive cells): cells from Compound A-treated MF patients; for normalized percentage of TPO-activated S6RP phosphorylation (p-S6RP): TPO-treated vehicle=100
# Protocol: as §1, §3, §2
# [4] = tested on: WIL2-S; assay: ADCC LDH release assay, purified NK cells against WIL2-S target cells; format: cell-based, human; settings: for Percentage of maximum obinutuzumab-mediated ADCC: Obinutuzumab 10 μg/mL, E:T=10:1, 4 h; for Percentage of maximum ADCC, rituximab: rituximab 10 μg/mL, FcγRIIIa 158F/F
# Description: PI3K isoforms may play a role in immune effector cells and FcγR signaling. The effects of Compound B on the immune effector functions of obinutuzumab and rituximab in lymphoma cell lines were examined. To characterize the antibody-dependent cellular cytotoxicity (ADCC), PBMCs were isolated from healthy individuals with FcγRIIIa genotypes of 158F/F, 158F/V, or 158V/V (Leuko Paks from AllCells, Alameda, Calif.) using Ficoll density gradient centrifugation. NK cells were enriched using a negative-selection immunomagnetic enrichment kit ([…] Technologies, Vancouver, British Columbia, Canada). Enriched NK cells and target cells WIL2-S, S-DHL-4, or Z-138 were separately pre-incubated for 1 hour with or without Compound B (1/2 dilutions from about 1 mM to about 1 nM). In the last 20 minutes of the pre-incubation, target cells were opsonized with or without rituximab or obinutuzumab (at 10 μg/mL, the saturating concentration with maximal ADCC) at indicated effector-target ratios (E:T). Palivizumab was used as an isotype control. NK and target cells were combined and incubated for 4 hours at 37° C. in 5% CO2. To determine ADCC, […] dehydrogenase (LDH) was measured using a cytotoxicity detection kit (Roche Applied Science, Indianapolis, Ind.). In some assays, antigen-independent cellular cytotoxicity (AICC) which represented spontaneous release by NK cell killing of target cells without antibodies were used as control.
# LDH release assays were conducted at 4 hours using WIL2-S line as target and purified NK cells (E:T=10:1). The results (n=9) were normalized as % of maximum ADCC.
# [5] = tested on: Ri-1 DLBCL cells; assay: Cell death assay (Annexin V/7AAD) in Ri-1 DLBCL cells; format: cell-based; settings: 3 days
# Protocol: (§4) Further, whole blood (WB) autologous B-cell depletion and cell-death induction assays were conducted as described in Mossner et al., Blood 115:4393-402, 2010. For cell death assay: Ri-1 DLBCL cells were seeded at 15,000 cells/well in 96-well plates. Cells were preincubated with Compound B or DMSO for 1 hour before the addition of antibody. Plates were incubated at 37° C. in a humidified CO2 chamber for 3 days. Cells were washed once with PBS and treated with Accutase for 15 minutes before being stained with Guava Nexin® reagent and analyzed on the Guava EasyCyte flow cytometer (Merck Millipore).
# After 3 days of incubation, cell death was assessed by Annexin V/7AAD staining.
# [6] = tested on: autologous B cells; assay: Whole blood (WB) autologous B-cell depletion assay; format: cell-based
# Protocol: as §4
# The percentage of deplete autologous B cells in a whole blood assay may represent the antibody potency.
# [7] = 0.02 μM, rux-treated MF patients
# [8] = 0.2 μM, rux-treated MF patients
structure (smiles),measurement,setting,value
"CC[C@H](Nc1ncnc2[nH]cnc12)c1nc2cccc(F)c2c(=O)n1-c1ccccc1 [Compound B, (S)-2-(1-((9H-purin-6-yl)amino)propyl)-5-fluoro-3-phenylquinazolin-4(3H)-one]",basal p-S6RP level vs untreated cells,[1],reduced levels
same,p-AKT (table title: percentage of Annexin-V positive cells),"[2]; 0.02 μM, column 0 = 100",56% and 74% and 51%
same,normalized percentage of TPO-activated AKT phosphorylation (p-AKT),"[2]; 0.02 μM, naïve MF patients, one line per patient",43% and 60% and 58%
same,normalized percentage of TPO-activated AKT phosphorylation (p-AKT),[2]; [7],59% and 60% and 78% and 55% and 57%
same,p-AKT (table title: percentage of Annexin-V positive cells),[2]; 0.2 μM,49% and 71% and 51%
same,normalized percentage of TPO-activated AKT phosphorylation (p-AKT),"[2]; 0.2 μM, naïve MF patients",30% and 32% and 41%
same,normalized percentage of TPO-activated AKT phosphorylation (p-AKT),[2]; [8],39% and 52% and 55% and 57% and 36% and 33%
same,normalized percentage of TPO-activated AKT phosphorylation (p-AKT),"[2]; 2.0 μM, naïve MF patients",28% and 32% and 27%
same,p-S6RP (table title: percentage of Annexin-V positive cells),[3]; 0.02 μM,61% and 69% and 64%
same,normalized percentage of TPO-activated S6RP phosphorylation (p-S6RP),"[3]; 0.02 μM, naïve MF patients",57% and 50% and 86%
same,normalized percentage of TPO-activated S6RP phosphorylation (p-S6RP),[3]; [7],55% and 79% and 60% and 59% and 53% and 62%
same,p-S6RP (table title: percentage of Annexin-V positive cells),[3]; 0.2 μM,52% and 54% and 42%
same,normalized percentage of TPO-activated S6RP phosphorylation (p-S6RP),"[3]; 0.2 μM, naïve MF patients",48% and 42% and 69%
same,normalized percentage of TPO-activated S6RP phosphorylation (p-S6RP),[3]; [8],35% and 56% and 55% and 50% and 32% and 44%
same,p-S6RP (table title: percentage of Annexin-V positive cells),[3]; 2.0 μM,30% and 34% and 25%
same,Percentage of maximum obinutuzumab-mediated ADCC,[4]; Compound B 0.98 nM,99% and 91% and 109% and 94% and 96% and 103% and 104% and 101%
same,Percentage of maximum obinutuzumab-mediated ADCC,[4]; Compound B 1.95 nM,100% and 89% and 125% and 104% and 106% and 112% and 107%
same,Percentage of maximum obinutuzumab-mediated ADCC,[4]; Compound B 3.91 nM,91% and 84% and 102% and 113% and 105% and 108% and 110% and 103%
same,Percentage of maximum obinutuzumab-mediated ADCC,[4]; Compound B 7.81 nM,90% and 89% and 98% and 113% and 105% and 109% and 107% and 94%
same,"Percentage of maximum ADCC, rituximab",[4]; Compound B 15.63 nM,92% and 108%
same,Percentage of maximum obinutuzumab-mediated ADCC,[4]; Compound B 31.25 nM,82% and 85% and 102% and 107% and 96% and 95%
same,"Percentage of maximum ADCC, rituximab",[4]; Compound B 31.25 nM,86% and 109%
same,Percentage of maximum obinutuzumab-mediated ADCC,[4]; Compound B 62.5 nM,78% and 88% and 103% and 95% and 108% and 112% and 98%
same,Percentage of maximum obinutuzumab-mediated ADCC,[4]; Compound B 125 nM,84% and 87% and 104% and 97% and 111% and 110% and 105% and 94%
same,Percentage of maximum obinutuzumab-mediated ADCC,[4]; Compound B 250 nM,89% and 91% and 99% and 97% and 95% and 106% and 109% and 102%
same,Percentage of maximum obinutuzumab-mediated ADCC,[4]; Compound B 500 nM,79% and 83% and 94% and 92% and 96% and 106% and 104%
same,"Percentage of maximum ADCC, obinutuzumab","[4]; Compound B 1000 nM, obinutuzumab 10 μg/mL, FcγRIIIa 158V/V, n=2",83% and 82%
same,inhibition at […],"[4]; Homo sapiens, 250 nM, FcγRIIIa 158V/V genotype, read-out: inhibition of obinutuzumab-mediated ADCC",< 10%
same,effect on obinutuzumab-mediated ADCC in FcγRIIIa 158F/F or 158F/V genotypes,"[4]; n=2 per genotype, antibody 10 μg/mL",did not affect
same,Percentage of total Annexin V+ cells,[5]; 100 nM Compound B alone,28% and 27%
same,Percentage of total Annexin V+ cells,[5]; 300 nM Compound B alone,31% and 33%
same,Percentage of total Annexin V+ cells,[5]; 600 nM Compound B alone,35% and 37%
same,Percentage of B-cell depletion WB,[6]; Compound B alone 100 nM,5% and −1% and −3%
same,Percentage of B-cell depletion WB,[6]; Compound B alone 760 nM,−1% and −4%
same,Percentage of B-cell depletion WB,[6]; Compound B alone 4200 nM,0% and 1% and 5%
